Marks after values point to notes of the source that are not given here.
How the values were obtained:
Type in all cases: physicochemical
Grinding stability = details: ~30 mg ground manually in a mortar for about 5 minutes
[1] = DVS (dynamic vapor sorption) moisture uptake; details: for form change after DVS test (XRPD): XRPD before and after DVS
Procedure: (FIG. 5). Sample weight decreased rapidly when humidity decreased from 10% to 0%, which might be caused by loss of crystalline water.
DVS was measured via a SMS (Surface Measurement Systems) DVS Intrinsic.

[2] = Equilibrium solubility in pH buffers (pH 4.0-6.0) with pH adjustment; details: for S: solubility: RT, with pH adjustment; for pH before adjustment (in brackets): 24 hours
Procedure: In details, ˜5 mg of solids were suspended into 1 mL of each medium with dosing conc. at ˜5 mg/mL. Additional solids were added into the sample to generate suspension if clear solution was obtained. The suspension was equilibrated via stirring (1000 rpm) for 24 hours. The pH of the suspension was adjusted when the final pH shifted above 0.3, and the samples were stirred for another 1.5 hours after pH adjustment. The suspension was centrifuged to obtain precipitate and supernatants. Solubility, purity and pH were tested for the supernatants after filtration, and isolated precipitate was tested by XRPD.
(§1) • 1. pH=3.0 buffer (50 mM HCl+KCl): Weigh 365.39 mg KCl into a 100 mL volumetric flask (VF), and add 0.1 mL 1M HCl into the VF, and dilute to volume with water. • 2. pH=4.0 buffer (50 mM citrate): Weigh 56.74 mg citric acid and 60.18 mg trisodium citrate into a 10 mL volumetric flask, and dilute to volume with water. • 3. pH=5.0 buffer (50 mM citrate) Weigh 11.12 mg citric acid and 95.38 mg trisodium citrate into a 10 mL volumetric flask, and dilute to volume with water. • 4. pH=6.0 buffer (50 mM citrate) Weigh 11.04 mg citric acid and 130.2 mg trisodium citrate into a 10 mL volumetric flask, and dilute to volume with water. • 5. pH=6.0 buffer (50 mM phosphate) Weigh 8.7 mg Na2HPO4 and 52.6 mg NaH2PO4 into a 10 mL volumetric flask, and dilute to volume with water. • 6. pH=7.0 buffer (50 mM phosphate) Weigh 23.47 mg Na2HPO4 and 43.34 mg NaH2PO4into a 10 mL volumetric flask, and dilute to volume with water. • 7. pH=8.0 buffer (50 mM phosphate) Weigh 31.64 mg Na2HPO4 and 67.18 mg NaH2PO4into a 10 mL volumetric flask, and dilute to volume with water.

[3] = Equilibrium solubility in pH buffers (3.0-8.0), 20% captisol and water; details: 24 hrs; for S: solubility: RT
Procedure: Additional solids were added into the sample to generate suspension if clear solution obtained. The suspension was equilibrated via stirring (1000 rpm). The suspension was centrifuged to obtain precipitate and supernatants.
Solubility and pH were tested for the supernatants after filtration, and isolated precipitate was tested by XRPD.
as §1

[4] = Approximate solubility at RT; details: CHCl3, RT, solvent for freeform isolation
Procedure: Four freeform isolation experiments were performed in different solvent with different acids. Solids were obtained in DCM/HCl and CHCl3/HCl system.
Approximately 2 mg solids were added into a 3-mL glass vial. Solvents in the following table were then added stepwise (50-50-200-700[…] for each step) into the vials and stirred until the solids were dissolved or a total volume of 1 mL was reached. The solubility results were used to guide the solvent selection in polymorph formation.

[5] = pH = 4.0 buffer (50 mM citrate)
[6] = pH = 5.0 buffer (50 mM citrate)
[7] = pH = 6.0 buffer (50 mM citrate)
[8] = pH = 6.0 buffer (50 mM phosphate)
[9] = pH = 3.0 buffer (50 mM HCl + KCl)
[10] = pH = 7.0 buffer (50 mM phosphate)
[11] = pH = 8.0 buffer (50 mM phosphate)

CC(=O)NCC1CCN(Cc2cc(Oc3ccc(N4CCN(CCC(=O)O)CC4)nc3)nc(-c3cc(Cl)cc(Cl)c3)c2)CC1 [Sulfate Type B]
crystallinity after grinding (XRPD) (Grinding stability): decreased after grinding | form change after DVS test (XRPD) [1]: Two additional peaks | Area % (purity of supernatant) [2, 5]: 99.2 Area % | FC: form change (XRPD of precipitate) [2, 5]: Low (Low; low crystallinity) | pH (final, after adjustment where adjusted) [2, 5]: 3.9 | S: solubility [2, 5]: 2.29 mg/mL | Area % (purity of supernatant) [2, 6]: 99.4 Area % | FC: form change (XRPD of precipitate) [2, 6]: 3 (3/4/6/7/8: new Form 3/4/6/7/8) | pH (final, after adjustment where adjusted) [2, 6]: 5.0* | pH before adjustment (in brackets) [2, 6]: (4.5) | S: solubility [2, 6]: 6.82^# mg/mL | Area % (purity of supernatant) [2, 7]: 92.6 Area % | FC: form change (XRPD of precipitate) [2, 7]: 6 (3/4/6/7/8: new Form 3/4/6/7/8) | pH (final, after adjustment where adjusted) [2, 7]: 6.1* | pH before adjustment (in brackets) [2, 7]: (4.4) | S: solubility [2, 7]: 0.07 mg/mL | Area % (purity of supernatant) [2, 8]: 88.2 Area % | pH (final, after adjustment where adjusted) [2, 8]: 6.2* | pH before adjustment (in brackets) [2, 8]: (3.0) | S: solubility [2, 8]: 0.06 mg/mL | pH of supernatant (final pH) ([3]; 20% Captisol (pH = 5.0, w/v)): 2.6 | S: solubility ([3]; 20% Captisol (pH = 5.0, w/v)): >44.5^1 mg/mL | FC: form change (XRPD of precipitate) ([3]; H2O): N (N: solid form not changed) | pH of supernatant (final pH) ([3]; H2O): 2.4 | S: solubility ([3]; H2O): 1.97 mg/mL | FC: form change (XRPD of precipitate) [3, 9]: 1 (1/2/3/4/5: new Form 1/2/3/4/5) | pH of supernatant (final pH) [3, 9]: 2.3 | S: solubility [3, 9]: 8.00 mg/mL | FC: form change (XRPD of precipitate) [3, 5]: Low (Low: low crystallinity) | pH of supernatant (final pH) [3, 5]: 3.8 | S: solubility [3, 5]: 2.33 mg/mL | FC: form change (XRPD of precipitate) [3, 6]: 3 (1/2/3/4/5: new Form 1/2/3/4/5) | pH of supernatant (final pH) [3, 6]: 4.4 | S: solubility [3, 6]: 1.66* mg/mL | FC: form change (XRPD of precipitate) [3, 7]: 3 (1/2/3/4/5: new Form 1/2/3/4/5) | pH of supernatant (final pH) [3, 7]: 4.3 | S: solubility [3, 7]: 0.93* mg/mL | FC: form change (XRPD of precipitate) [3, 10]: 2 (1/2/3/4/5: new Form 1/2/3/4/5) | pH of supernatant (final pH) [3, 10]: 5.6 | S: solubility [3, 10]: 0.61* mg/mL | pH of supernatant (final pH) [3, 11]: 6.9 | S: solubility [3, 11]: 0.04* mg/mL

CC(=O)NCC1CCN(Cc2cc(Oc3ccc(N4CCN(CCC(=O)O)CC4)nc3)nc(-c3cc(Cl)cc(Cl)c3)c2)CC1 [starting material]
solubility [4]: S > 50.5 mg/mL | Moisture Uptake (DVS) ([1]; 25° C., from 10% RH to 80% RH): 0.7% | form change after DVS test (XRPD) [1]: no form change

From patent US20240307374A1, “FORMULATION OF FURIN INHIBITOR FOR INHALATION” (BP ASSET V, INC., priority 2021, published 2024)
